Results as given in patent US9365534B2, “Arylated camphenes, processes for their preparation and uses thereof” (Yissum Research Development Company of the Hebrew …, priority 2009, dated 2016).

Tested on: closed head injury (CHI)
Test: Closed head injury (CHI) model, neurological severity score, Sabra mice
Format: in vivo
Details: SR144528 1 mg/kg i.p. 1 h after CHI, 24 h to 14 day, vs vehicle control
Method: The study was conducted according to the guidelines of the Institutional Animal Care Committee of the Hebrew University. Male Sabra mice weighing 35 to 50 g were used in all experiments. Animals were kept under controlled light conditions with a 12 h/12 h light/dark cycle. Experimental closed head injury (CHI) was induced using a modified weight drop device developed in our laboratory as described previously (Chen et al., 1996). At 1 h after CHI, the functional status of the mice was evaluated according to a set of 10 neurobehavioral tasks, namely the neurological severity score (NSS). This score is based on the ability of the mice to perform 10 different tasks (Beni-Adani et al., 2001) that evaluate their motor ability, balance, and alertness. One point is given for failing to perform a task. […] A score of 10 reflects maximal neurologic impairment, and a decrease of NSS during the recovery period indicates partial recovery of function.
Data was analyzed using the Prism 4.02 programme (GraphPad Software, San Deigo, Calif., USA). The data are expressed as mean±SEM and statistical significance was assessed with one way analysis of variance (ANOVA) followed by a Dunnett's post-hoc analysis for TNF-α levels. Nonparametric NSS values were compared between the two groups at each time point.
In this study four groups of mice were subjected to CHI (n=10/group and control n=9), after which the following agents were administered: • Group 1 (Control): Vehicle only (ethanol:cremophor:saline at ratio of 1:1:18), 1 h after CHI. • Group 2: HU-910, 0.1 mg/kg, dissolved in vehicle (1:1:18 ethanol:cremophor:saline), i.p. 1 h after CHI. • Group 3: HU-910, 1.0 mg/kg, dissolved in vehicle (1:1:18 ethanol:cremophor:saline), i.p. 1 h after CHI. • Group 4: HU-910, 10.0 mg/kg, dissolved in vehicle (1:1:18 ethanol:cremophor:saline), i.p. 1 h after CHI.
In this study four groups of mice were subjected to CHI (n=9/group), after which the following agents were administered: • Group 1 (Control): Vehicle only (ethanol:cremophor:saline at ratio of 1:1:18), 1 h after CHI. • Group 2: HU-910, 10 mg/kg, dissolved in vehicle (1:1:18 ethanol:cremophor:saline), i.p. 1 h after CHI. • Group 3: Specific CB2 antagonist SR144528 (N-[(1S)-endo-1,3,3-trimethylbicyclo[2.2.1]heptan-2-yl]-5-(4-chloro-3-methylphenyl)-1-(4-methylbenzyl)pyrazole-3 carboxamide), (see M. Rinaldi-Carmona, et al. J. Pharmacol. Exp. Ther. 284 (1998) 644-650), 1 mg/kg, i.p. 1 h after CHI. • Group 4: Specific CB2 antagonist (SR144528, N-[(1S)-endo-1,3,3-trimethylbicyclo[2.2.1]heptan-2-yl]-5-(4-chloro-3-methylphenyl)-1-(4-methylbenzy)pyrazole-3 carboxamide), 1 mg/kg, i.p. 1 h after CHI and HU-910 10 mg/kg administered 10 min after administration of antagonist.
In this study four groups of mice were subjected to CHI (n=7-8/group), after which the following agents were administered: • Group 1 (Control): Vehicle only (Dimethyl Sulfoxide (DMSO): Tween 80: Saline at ratio of 1:1:18), i.p. 1 h after CHI. • Group 2: HU-910, 10 mg/kg, dissolved in Vehicle, i.p. 1 h after CHI. • Group 3: Specific CB2 antagonist/inverse agonist AM630 (6-Iodo-2-methyl-1-[2-(4-morpholinyl)ethyl]-1H-indol-3-yl](4-methoxyphenyl)methanone) (Ross et al. 1999)), dissolved in Vehicle, 1 mg/kg, i.p. 1 h after CHI and HU-910, dissolved in Vehicle, 10 mg/kg administered 10 min after administration of antagonist/inverse agonist. • Group 4: Specific CB2 antagonist/inverse agonist AM630 (6-Iodo-2-methyl-1-[2-(4-morpholinyl)ethyl]-1H-indol-3-yl](4-methoxyphenyl)methanone), dissolved in Vehicle, 1 mg/kg, i.p. 1 h after CHI

With “N-[(1S)-endo-1,3,3-trimethylbicyclo[2.2.1]heptan-2-yl]-5-(4-chloro-3-methylphenyl)-1-(4-methylbenzyl)pyrazole-3 carboxamide [SR144528, reference compound]” the “extent of recovery ΔNSS, antagonist alone” value was “recovery was significantly reduced”.
